{"source": "patent US20190388513A1", "about": "“OIL BASED FORMULATIONS FOR SUBLINGUAL AND BUCCAL DELIVERY” (BIOLINGUS IP LLC, priority 2017, published 2019)", "key": {"[1]": {"assay": "Sublingual resveratrol: plasma resveratrol levels (Cmax, AUC) in rats, LC-MS/MS (Example 7)", "type": "in vivo", "conditions": "sublingual 10 mg in oil formulation (CSSR6d) versus oral 10 mg in sugar syrup, SD rats, up to 24 hours", "protocol": "Resveratrol was suspended in 50% sugar solution and the mixture spun until homogenous for oral ingestion. Two groups of each three SD rats were treated. The treatment groups were administered as follows: 1) sublingual resveratrol in oil formulation (Group 1: SL-resveratrol 10 mg in oil formulation); 2) oral administered resveratrol in sugar syrup (Group 2: OP resveratrol 10 mg in sugar syrup). Nine blood sampling time points up to 24 hours post dosing per anima […]. Plasma samples bio analysis was performed with LC-MS/MS method."}, "diabetic mice [2]": {"test_system": "diabetic mice", "assay": "Sublingual insulin aspart study: blood glucose in diabetic mice (Example 1)", "type": "in vivo, mice (strain C57/BL6)", "conditions": "sublingual 100 U/kg insulin aspart in TPMCEu oil, without exenatide, versus SC insulin aspart 1 IU/kg", "protocol": "For the experiments described below, mice of approximately 60 g were used. 5 μL of the resulting oil mixture comprising Insulin Aspart was placed underneath the tongue of anesthetised diabetic mice. […] Five groups of five mice were treated. […] These were compared to 4) 1 IU/kg subcutaneously administered insulin aspart (SC-Insulin aspart) and 5) sublingual oil placebo ([…])."}, "diabetic mice [3]": {"test_system": "diabetic mice", "assay": "Sublingual insulin glargine study, solid dosage formulation: blood glucose in diabetic mice (Example 2)", "type": "in vivo, mice (strain C57/BL6)", "conditions": "sublingual insulin glargine 10 or 50 IU/kg absorbed on solid dosage formulation, versus SC insulin glargine 1 IU/kg", "protocol": "One solid dosage formulation was placed underneath the tongue of anesthetised diabetic mice. Blood glucose was measured at 0 h, 1 h, 2 h, 4 h, 8 h, 20 h and 24 h.\nFour groups of five mice were treated. The treatment groups were administered as follows: 1) sublingual solid dosage formulation placebo (Group 1: SL-CSSR 4; wherein “CSSR-4” means a solid formulation containing vitamin E, PEG 200 and flavouring oils). 2) 1 IU/kg subcutaneously administered insulin glargine (Group 2: SC-Insulin glargine 1 IU/kg); 3) 10 IU/kg sublingually administered insulin glargine (Group 3: SL-Insulin glargine 10 IU/kg); and 4) 50 IU/kg sublingually administered insulin glargine (Group 4: SL-Insulin glargine 50 IU/kg). For animal studies using solid formulations, tablets were dissolved in water to form a gel. The gel was then placed under the tongue of the mice instead of the tablet."}}}
{"molecule": "Oc1ccc(C=Cc2cc(O)cc(O)c2)cc1", "note": "[resveratrol]", "values": [{"measurement": "Absorbability relative to orally administered resveratrol (Cmax and AUC of blood resveratrol levels)", "setting": "[1]", "result": "20 to 40", "unit": "times"}]}
{"molecule": "insulin aspart", "values": [{"measurement": "Blood glucose levels / AUC0-240min, compared with subcutaneous delivery", "setting": "diabetic mice [2]", "result": "comparable to subcutaneous delivery of insulin aspart"}]}
{"molecule": "insulin glargine", "values": [{"measurement": "Blood glucose levels 0-24 h, compared with subcutaneous delivery", "setting": "diabetic mice [3]", "result": "comparable to subcutaneous delivery of insulin glargine"}]}
